The target in series [1] is T1, SARS-CoV-2 Mpro (Severe acute respiratory syndrome coronavirus 2, UniProt P0DTD1). In kind it is biochemical.
Series [2] concerns the target T1, SARS-CoV-2 Mpro. Format: biochemical. This is another data set of the same source.
Series [3] deals with T1, SARS-CoV-2 Mpro. Description: biochemical. As to conditions: for inhibition of Mpro in the initial screen: 17 μM.
In series [4] the test system is SARS-CoV-2. In kind it is cell-based.
Another series deals with SARS-CoV-2 infection. The note with it: in vivo; cited from earlier work.
The test system of series [5] is SARS-CoV-2. The note with it: read-out: IC50 for inhibition of SARS-CoV-2 replication; cited from earlier work.
Another series has as its system Calu-3 cells. As to conditions: cited from earlier work.

Entries after “also recorded” stand apart in the source; their conditions may differ.

As to `O=c1c(-c2c(O)cc(O)c3c(=O)cc(-c4ccc(O)cc4)oc23)c(-c2ccc(O)cc2)oc2cc(O)cc(O)c12` [3,8'-Biapigenin], the “inhibition of Mpro activity, mass spectrometry assay” value at SARS-CoV-2 Mpro [1] is listed as “completely inhibited”.
`O=c1cc(-c2ccc(O)c(-c3c(O)cc(O)c4c(=O)cc(-c5ccc(O)cc5)oc34)c2)oc2cc(O)cc(O)c12` [Amentoflavone]: at SARS-CoV-2 Mpro [1], the “inhibition of Mpro activity, mass spectrometry assay” value is reported as “completely inhibited”. Moreover, the “reversibility of Mpro inhibition on dilution” value on SARS-CoV-2 Mpro [2] is given as “reversible”.
In the case of `O=c1cc(-c2ccccc2)oc2cc(O)c(O)c(O)c12` [Baicalein, reference compound], the “inhibition of Mpro in the initial screen” value against SARS-CoV-2 Mpro [3] is “showed inhibition”. The “reversibility of Mpro inhibition on dilution” value at SARS-CoV-2 Mpro [2] is listed as “reversible”. Moreover, the “inhibition of SARS-CoV-2 replication (in words)” value with SARS-CoV-2 [4] is given as “inhibited SARS-CoV-2 infection”. Besides, in the series with SARS-CoV-2 infection, the “body weight after SARS-CoV-2 infection” value was “prevented reduction in body weight” and the “lung injury resulting from SARS-CoV-2 infection” value was “decreased lung injury”.
`O=c1c(O)c(-c2cc(O)c(O)c(O)c2)oc2cc(O)cc(O)c12` [Myricetin, reference compound]: the “inhibition of Mpro in the initial screen” value on SARS-CoV-2 Mpro [3] is recorded as “showed inhibition”. Moreover, the “reversibility of Mpro inhibition on dilution” value on SARS-CoV-2 Mpro [2] is listed as “irreversible”. The “inhibition of SARS-CoV-2 replication (in words)” value in the series on SARS-CoV-2 [4] is reported as “inhibits SARS-CoV-2 replication”.
As for `O=c1cc(-c2ccc(O)cc2)oc2cc(O)cc(O)c12` [apigenin], the IC50 is 20 ± 9 µM against SARS-CoV-2 Mpro [3] and 5.11 ± 0.26 µM in the series on SARS-CoV-2 [5]. The “reversibility of Mpro inhibition on dilution” value on SARS-CoV-2 Mpro [2] was “reversible”. Moreover, in the series on SARS-CoV-2 [4], the “inhibition of SARS-CoV-2 replication (in words)” value was “slightly better than baicalein at 50 μM; also recorded: inhibits viral replication at concentrations that are not toxic”. In addition, the “toxicity in cell culture” value in the series with Vero E6 cells is recorded as “some toxicity”. The half-maximal cytotoxic concentration (CC50) in the series with Calu-3 cells is 302 ± 15 µM.
In the case of `O=C1C[C@@H](c2ccccc2)Oc2cc(O)cc(O)c21` [pinocembrin], the “inhibition of Mpro (in words)” value on SARS-CoV-2 Mpro [3] is “relatively poor inhibition”.

The term IC50 denotes the concentration at which inhibition is half-maximal. As usually defined, the CC50 is the concentration that lowers cell viability or growth by half.

Source of the values: article PMC10470319 (iScience, 2023).
